Data published in publication PMC12210654, “Palazestrant, a novel oral Complete Estrogen Receptor Antagonist (CERAN) and Selective Estrogen Receptor Degrader (SERD), in patients with ER+/HER2− advanced or metastatic breast cancer: phase 1/2 study results” (Breast Cancer Research : BCR, 2025).

Experiment: Safety: adverse events (NCI CTCAE v5.0), electrocardiograms
Format: in vivo, human
Settings: for TEAE Neutropenia, Any grade / TEAE Neutropenia, Grade 3 / TEAE Neutropenia, Grade 4 / TRAE Neutropenia, Any grade / TRAE Neutropenia, Grade 3 / TRAE Neutropenia, Grade 4: includes neutropenia, neutrophil count decreased, febrile neutropenia
Description: Safety assessments included the monitoring of AEs, clinical laboratory parameters, electrocardiograms, and vital signs. AE severity was graded according to the National Cancer Institute Common Terminology Criteria for Adverse Events (version 5.0).
All DLT analyses (phase 1a) were performed in patients enrolled in the study during cycle 1 and who either received 75% of the planned palazestrant doses or experienced a DLT during cycle 1. All PK analyses were performed in patients who received at least 1 dose of palazestrant and had adequate postbaseline PK samples for characterization of PK parameters. All safety analyses were performed and PFS assessed in patients who received at least 1 dose of palazestrant. Clinical response (CR or PR) was assessed in patients who received at least 1 cycle of palazestrant, had measurable disease at baseline, and had at least 1 postbaseline tumor assessment. CBR was assessed in patients who received at least 1 cycle of palazestrant, had at least 1 postbaseline tumor assessment, and started their first dose at least 24 weeks before data cutoff. Patients who discontinued study treatment without radiographic progression within 24 weeks from the first dose were not included in the CBR analysis. PK parameters were estimated using conventional noncompartmental methods. For CBR, estimates were accompanied by 2-sided 95% confidence intervals (95% CIs). For PFS, Kaplan–Meier analyses were used to determine medians, event-free rates, and 95% CIs. For all other outcomes, categorical data were analyzed using frequencies and percentages, and continuous data were analyzed using means (standard deviation) or medians (range), as appropriate.

CCCN1CC(Oc2ccc([C@@H]3c4[nH]c5ccccc5c4C[C@@H](C)N3CC(C)(C)F)cc2)C1 [palazestrant, Palazestrant]
TEAE Constipation, Any grade (60 mg (n = 30)): 6 (20.0) n (%) | TEAE Constipation, Grade 3 (60 mg (n = 30)): 0 n (%) | TEAE Constipation, Grade 4 (60 mg (n = 30)): 0 n (%) | TEAE Diarrhea, Any grade (60 mg (n = 30)): 6 (20.0) n (%) | TEAE Diarrhea, Grade 3 (60 mg (n = 30)): 1 (3.3) n (%) | TEAE Diarrhea, Grade 4 (60 mg (n = 30)): 0 n (%) | TEAE Fatigue, Any grade (60 mg (n = 30)): 13 (43.3) n (%) | TEAE Fatigue, Grade 3 (60 mg (n = 30)): 0 n (%) | TEAE Fatigue, Grade 4 (60 mg (n = 30)): 0 n (%) | TEAE Headache, Any grade (60 mg (n = 30)): 7 (23.3) n (%) | TEAE Headache, Grade 3 (60 mg (n = 30)): 0 n (%) | TEAE Headache, Grade 4 (60 mg (n = 30)): 0 n (%) | TEAE Nausea, Any grade (60 mg (n = 30)): 14 (46.7) n (%) | TEAE Nausea, Grade 3 (60 mg (n = 30)): 0 n (%) | TEAE Nausea, Grade 4 (60 mg (n = 30)): 0 n (%) | TEAE Vomiting, Any grade (60 mg (n = 30)): 5 (16.7) n (%) | TEAE Vomiting, Grade 3 (60 mg (n = 30)): 0 n (%) | TEAE Vomiting, Grade 4 (60 mg (n = 30)): 0 n (%) | TRAE Fatigue, Any grade (60 mg (n = 30)): 9 (30.0) n (%) | TRAE Fatigue, Grade 3 (60 mg (n = 30)): 0 n (%) | TRAE Fatigue, Grade 4 (60 mg (n = 30)): 0 n (%) | TRAE Headache, Any grade (60 mg (n = 30)): 3 (10.0) n (%) | TRAE Headache, Grade 3 (60 mg (n = 30)): 0 n (%) | TRAE Headache, Grade 4 (60 mg (n = 30)): 0 n (%) | TRAE Nausea, Any grade (60 mg (n = 30)): 10 (33.3) n (%) | TRAE Nausea, Grade 3 (60 mg (n = 30)): 0 n (%) | TRAE Nausea, Grade 4 (60 mg (n = 30)): 0 n (%) | TRAE Vomiting, Any grade (60 mg (n = 30)): 3 (10.0) n (%) | TRAE Vomiting, Grade 3 (60 mg (n = 30)): 0 n (%) | TRAE Vomiting, Grade 4 (60 mg (n = 30)): 0 n (%) | TEAE Neutropenia, Any grade (60 mg (n = 30)): 2 (6.7) n (%) | TEAE Neutropenia, Grade 3 (60 mg (n = 30)): 0 n (%) | TEAE Neutropenia, Grade 4 (60 mg (n = 30)): 0 n (%) | TRAE Neutropenia, Any grade (60 mg (n = 30)): 0 n (%) | TRAE Neutropenia, Grade 3 (60 mg (n = 30)): 0 n (%) | TRAE Neutropenia, Grade 4 (60 mg (n = 30)): 0 n (%) | TEAE Constipation, Any grade (120 mg (n = 86)): 15 (17.4) n (%) | TEAE Constipation, Grade 3 (120 mg (n = 86)): 0 n (%) | TEAE Constipation, Grade 4 (120 mg (n = 86)): 0 n (%) | TEAE Diarrhea, Any grade (120 mg (n = 86)): 12 (14.0) n (%) | TEAE Diarrhea, Grade 3 (120 mg (n = 86)): 0 n (%) | TEAE Diarrhea, Grade 4 (120 mg (n = 86)): 0 n (%) | TEAE Fatigue, Any grade (120 mg (n = 86)): 22 (25.6) n (%) | TEAE Fatigue, Grade 3 (120 mg (n = 86)): 3 (3.5) n (%) | TEAE Fatigue, Grade 4 (120 mg (n = 86)): 0 n (%) | TEAE Headache, Any grade (120 mg (n = 86)): 17 (19.8) n (%) | TEAE Headache, Grade 3 (120 mg (n = 86)): 0 n (%) | TEAE Headache, Grade 4 (120 mg (n = 86)): 0 n (%) | TEAE Nausea, Any grade (120 mg (n = 86)): 54 (62.8) n (%) | TEAE Nausea, Grade 3 (120 mg (n = 86)): 3 (3.5) n (%) | TEAE Nausea, Grade 4 (120 mg (n = 86)): 0 n (%) | TEAE Vomiting, Any grade (120 mg (n = 86)): 25 (29.1) n (%) | TEAE Vomiting, Grade 3 (120 mg (n = 86)): 4 (4.7) n (%) | TEAE Vomiting, Grade 4 (120 mg (n = 86)): 0 n (%) | TRAE Fatigue, Any grade (120 mg (n = 86)): 17 (19.8) n (%) | TRAE Fatigue, Grade 3 (120 mg (n = 86)): 2 (2.3) n (%) | TRAE Fatigue, Grade 4 (120 mg (n = 86)): 0 n (%) | TRAE Headache, Any grade (120 mg (n = 86)): 13 (15.1) n (%) | TRAE Headache, Grade 3 (120 mg (n = 86)): 0 n (%) | TRAE Headache, Grade 4 (120 mg (n = 86)): 0 n (%) | TRAE Nausea, Any grade (120 mg (n = 86)): 47 (54.7) n (%) | TRAE Nausea, Grade 3 (120 mg (n = 86)): 3 (3.5) n (%) | TRAE Nausea, Grade 4 (120 mg (n = 86)): 0 n (%) | TRAE Vomiting, Any grade (120 mg (n = 86)): 21 (24.4) n (%) | TRAE Vomiting, Grade 3 (120 mg (n = 86)): 2 (2.3) n (%) | TRAE Vomiting, Grade 4 (120 mg (n = 86)): 0 n (%) | TEAE Neutropenia, Any grade (120 mg (n = 86)): 21 (24.4) n (%) | TEAE Neutropenia, Grade 3 (120 mg (n = 86)): 3 (3.5) n (%) | TEAE Neutropenia, Grade 4 (120 mg (n = 86)): 6 (7.0) n (%) | TRAE Neutropenia, Any grade (120 mg (n = 86)): 18 (20.9) n (%) | TRAE Neutropenia, Grade 3 (120 mg (n = 86)): 3 (3.5) n (%) | TRAE Neutropenia, Grade 4 (120 mg (n = 86)): 5 (5.8) n (%) | grade 4 neutropenia resolved with dose interruption followed by dose reduction, treatment continued with no further neutropenia (120 mg/day): 3 patients | Grade 3 TEAE fatigue (120 mg/day (n = 86)): 3.5% | Grade 3 TEAE nausea (120 mg/day (n = 86)): 3.5% | Grade 3 TEAE neutropenia (120 mg/day (n = 86)): 3.5% | Grade 3 TEAE vomiting (120 mg/day (n = 86)): 4.7% | TEAE fatigue, any grade (120 mg/day (n = 86)): 25.6% | TEAE nausea, any grade (120 mg/day (n = 86)): 62.8% | TEAE vomiting, any grade (120 mg/day (n = 86)): 29.1% | TRAE fatigue, any grade (120 mg/day (n = 86)): 19.8% | TRAE headache, any grade (120 mg/day (n = 86)): 15.1%
